Results on two compounds are retold here after PMC3095316, “Differential expression pattern of an acidic 9/13-lipoxygenase in flower opening and senescence and in leaf response to phloem feeders in the tea plant” (BMC Plant Biology, 2010).

By Km is commonly meant the substrate concentration at which the rate is half of its maximum.

Read-outs that look alike come from different tables or passages of the source.

In this assay the target is T1, CsLOX1 (9/13-CsLOX1) (Camellia sinensis, UniProt A8W7J7).
T1 construct: gene lox1
T1 sequence (A8W7J7 1-861): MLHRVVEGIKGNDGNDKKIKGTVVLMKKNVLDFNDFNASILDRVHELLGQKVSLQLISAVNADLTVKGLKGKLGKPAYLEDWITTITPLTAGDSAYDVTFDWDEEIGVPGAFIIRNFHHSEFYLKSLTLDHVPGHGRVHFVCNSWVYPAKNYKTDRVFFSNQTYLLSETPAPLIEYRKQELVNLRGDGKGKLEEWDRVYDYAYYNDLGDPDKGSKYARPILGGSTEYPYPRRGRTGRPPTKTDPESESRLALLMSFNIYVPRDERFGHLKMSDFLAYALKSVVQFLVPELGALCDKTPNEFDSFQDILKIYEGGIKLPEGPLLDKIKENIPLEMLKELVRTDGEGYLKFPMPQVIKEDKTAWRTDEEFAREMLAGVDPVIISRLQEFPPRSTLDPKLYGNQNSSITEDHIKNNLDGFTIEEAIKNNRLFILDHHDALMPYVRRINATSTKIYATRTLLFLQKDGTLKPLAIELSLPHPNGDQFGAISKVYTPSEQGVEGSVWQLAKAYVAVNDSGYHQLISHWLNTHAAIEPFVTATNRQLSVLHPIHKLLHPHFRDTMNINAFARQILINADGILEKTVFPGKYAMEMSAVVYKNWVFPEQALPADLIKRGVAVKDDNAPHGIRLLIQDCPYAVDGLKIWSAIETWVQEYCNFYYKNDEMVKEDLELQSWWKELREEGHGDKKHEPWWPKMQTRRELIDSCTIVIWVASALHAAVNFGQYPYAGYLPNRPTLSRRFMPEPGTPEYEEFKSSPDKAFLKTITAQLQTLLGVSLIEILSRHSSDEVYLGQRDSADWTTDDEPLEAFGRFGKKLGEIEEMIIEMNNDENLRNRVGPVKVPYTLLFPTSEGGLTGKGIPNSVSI
The following applies: co-substrate O2, substrate 75-600 μM, pH and temperature of the kinetics not stated (optimum pH 3.6, 25°C).

Regarding `CCCCC/C=C\C/C=C\CCCCCCCC(=O)O` [linoleic acid], the Km is 141 µM.
As to `CC/C=C\C/C=C\C/C=C\CCCCCCCC(=O)O` [linolenic acid], the Km (linolenic acid isomer not printed (alpha taken from jasmonate context)) is 32.9 µM.
